PubChem BioAssay AID504664 (Sanford-Burnham Center for Chemical Genomics, 2011)
Active and inactive are the calls of the source.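 Rule for the calls: active = IC50 mean at or below 20 µM; inactive = the rest.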

Test system: 697 NF-kB-Luc cells, PMA/ionomycin, luciferase luminescence, 16 h
Assay: NF-kB reporter inhibition in 697 B cells, SAR follow-up, T-cell antigen receptor NF-kB inhibitors, cell-based, luminescence, set 2 (AID 504664)

Compound | IC50
COc1cc(NC(=O)c2ccc3c(c2)OCO3)ccc1NC(=O)c1cc2ccccc2o1 | > 79 µM (inactive)
Cc1ccc(C(NC(=O)C(C)C)c2ccc3cccnc3c2O)cc1 (stereo not given) | > 79 µM (inactive)
N#Cc1cccc(NC(=O)c2ccc([N+](=O)[O-])o2)c1 | > 79 µM (inactive)
CNC(=O)CCc1nc(-c2ccccc2)no1 | > 79 µM (inactive)
CCOc1ccc(-c2nc(CSCC(=O)NC3CC3)c(C)o2)cc1 | 0.21 µM
CCOc1ccc(NC(=O)c2ccc([N+](=O)[O-])o2)cc1 | > 79 µM (inactive)
O=C(Nc1cccc2ncccc12)c1ccc([N+](=O)[O-])o1 | > 79 µM (inactive)
CCCC(=O)NC(c1ccccc1OC)c1ccc2cccnc2c1O (stereo not given) | > 79 µM (inactive)
CCCC(=O)NC(c1ccccc1Cl)c1ccc2cccnc2c1O (stereo not given) | > 79 µM (inactive)
Cc1cc(C)cc(NC(=O)c2ccc([N+](=O)[O-])o2)c1 | 31.9 µM (inactive)
CCCCC(=O)NC(c1ccc(C)cc1)c1ccc2cccnc2c1O (stereo not given) | > 79 µM (inactive)
CC(C)c1ccc(C(NC(=O)C2CCCCC2)c2ccc3cccnc3c2O)cc1 (stereo not given) | > 79 µM (inactive)
O=C(Nc1ccc2oc(-c3cccnc3)nc2c1)c1ccc([N+](=O)[O-])o1 | > 79 µM (inactive)
CCCC(=O)NC(c1ccc(Cl)cc1)c1ccc2cccnc2c1O (stereo not given) | > 79 µM (inactive)
COc1cc2nc(NC(=O)c3ccccc3)sc(=O)c2cc1OC | 0.86 µM
CN1CCN(c2ccccc2NC(=O)c2ccc([N+](=O)[O-])o2)CC1 | > 79 µM (inactive)
CC(=O)N1CCc2cc(NC(=O)c3ccc([N+](=O)[O-])o3)ccc21 | > 79 µM (inactive)
COc1cc(-c2nc3n(n2)C(c2ccc(F)cc2)C2=C(CCCC2=O)N3)cc(OC)c1OC (stereo not given) | 29 µM (inactive)
CCOc1ccc(-c2nc(CSCC(=O)NCc3ccco3)c(C)o2)cc1 | 0.29 µM
CN(C)C(=O)CCc1nc(-c2ccc(C(C)(C)C)cc2)no1 | 6.56 µM
COc1ccc(C(NC(=O)CC(C)C)c2ccc3cccnc3c2O)cc1OC (stereo not given) | > 79 µM (inactive)
O=C(Nc1ccc(N2CCCC2)c(Cl)c1)c1ccc([N+](=O)[O-])o1 | 61.7 µM (inactive)
Cc1ccc(C(NC(=O)C2CCCCC2)c2ccc3cccnc3c2O)cc1 (stereo not given) | > 79 µM (inactive)
CNC(=O)CCc1nc(-c2ccc(C(C)(C)C)cc2)no1 | 0.03 µM
CCCCC(=O)NC(c1ccc(Cl)cc1)c1ccc2cccnc2c1O (stereo not given) | > 79 µM (inactive)

Compound | IC50
CCOc1ccc(-c2nc(CS(=O)(=O)CC(=O)NCc3ccc(F)cc3)c(C)o2)cc1 | > 79 µM (inactive)
CCCC(=O)NC(c1ccc(C)cc1)c1ccc2cccnc2c1O (stereo not given) | > 79 µM (inactive)
COc1ccc(C(NC(=O)C(C)C)c2ccc3cccnc3c2O)cc1 (stereo not given) | > 79 µM (inactive)
COc1ccc(C)cc1NC(=O)c1ccc([N+](=O)[O-])o1 | > 79 µM (inactive)
CC(C)c1ccc(C(NC(=O)C2CCCCC2)c2cc([N+](=O)[O-])c3cccnc3c2O)cc1 (stereo not given) | > 79 µM (inactive)
O=C(Nc1nc2c(Br)cc(Br)cc2c(=O)s1)c1ccco1 | 4.57 µM
COc1ccc(C(NC(=O)CCc2ccccc2)c2ccc3cccnc3c2O)cc1 (stereo not given) | > 79 µM (inactive)
O=C(Nc1ccc2c(c1)CCO2)c1ccc([N+](=O)[O-])o1 | > 79 µM (inactive)
CCOc1ccc(C(=O)Nc2ccc(NC(=O)c3cc4ccccc4o3)cc2)cc1[N+](=O)[O-] | > 79 µM (inactive)
O=C(Nc1ccc(-c2nc3ncccc3o2)cc1)c1ccc([N+](=O)[O-])o1 | > 79 µM (inactive)
Cc1ccc(C)c(NC(=O)c2ccc([N+](=O)[O-])o2)c1 | > 79 µM (inactive)
CCNC(=O)CCc1nc(-c2ccc(C(C)(C)C)cc2)no1 | < 0.16 µM
CC(C)CC(=O)NC(c1ccc(C(C)C)cc1)c1ccc2cccnc2c1O (stereo not given) | > 79 µM (inactive)
CCCCC(=O)NC(c1ccc(OC)cc1)c1ccc2cccnc2c1O (stereo not given) | > 79 µM (inactive)
COc1ccc(C(=O)Nc2ccc(NC(=O)c3cc4ccccc4o3)cc2)cc1Cl | > 79 µM (inactive)
CCCC(=O)NC(c1ccccc1)c1ccc2cccnc2c1O (stereo not given) | > 79 µM (inactive)
CCCCC(=O)NC(c1ccc(N(C)C)cc1)c1ccc2cccnc2c1O (stereo not given) | > 79 µM (inactive)
CCCCC(=O)NC(c1ccc(N(CC)CC)cc1)c1ccc2cccnc2c1O (stereo not given) | > 79 µM (inactive)
Cc1cc(NC(=O)c2ccc([N+](=O)[O-])o2)cc(-c2nc3ccccc3o2)c1O | > 79 µM (inactive)
O=C(Nc1ccc2oc(-c3ccncc3)nc2c1)c1ccc([N+](=O)[O-])o1 | > 79 µM (inactive)
CCC(=O)NC(c1ccc(N(C)C)cc1)c1ccc2cccnc2c1O (stereo not given) | > 79 µM (inactive)
COc1ccc(C(=O)Nc2ccc(NC(=O)c3cc4ccccc4o3)cc2)cc1[N+](=O)[O-] | > 79 µM (inactive)
CC(=O)N1CCN(c2ccc(NC(=O)c3ccc([N+](=O)[O-])o3)cc2Cl)CC1 | 62.3 µM (inactive)
CCCOc1ccc(C(=O)Nc2ccc(NC(=O)c3cc4ccccc4o3)cc2)cc1 | > 79 µM (inactive)
COc1ccc(C(NC(=O)Cc2ccccc2)c2ccc3cccnc3c2O)cc1OC (stereo not given) | > 79 µM (inactive)

Compound | IC50
Cc1cccc(NC(=O)c2ccc([N+](=O)[O-])o2)c1C | > 79 µM (inactive)
CCCCNC(=O)CCc1nc(-c2ccc(C(C)(C)C)cc2)no1 | 14.6 µM
CCN1CCN(c2c(Cl)cccc2NC(=O)c2ccc([N+](=O)[O-])o2)CC1 | 43.7 µM (inactive)
CC(=O)NC(c1ccc(C(C)C)cc1)c1ccc2cccnc2c1O (stereo not given) | > 79 µM (inactive)
CCCC(=O)NC(c1ccc(OC)cc1)c1ccc2cccnc2c1O (stereo not given) | > 79 µM (inactive)
CCC(=O)NC(c1ccc(C)cc1)c1ccc2cccnc2c1O (stereo not given) | > 79 µM (inactive)
CCN(CC)C(=O)CCc1nc(-c2ccc(C(C)(C)C)cc2)no1 | 60.1 µM (inactive)
CC(C)CC(=O)NC(c1ccccc1)c1ccc2cccnc2c1O (stereo not given) | > 79 µM (inactive)
CCCCC(=O)NC(c1ccc(Cl)cc1Cl)c1ccc2cccnc2c1O (stereo not given) | > 79 µM (inactive)
COc1ccccc1C(NC(C)=O)c1ccc2cccnc2c1O (stereo not given) | > 79 µM (inactive)
Cc1cc(NC(=O)c2ccc([N+](=O)[O-])o2)ccc1NC(=O)c1ccco1 | > 79 µM (inactive)
Cc1cc(-c2nc3ncccc3o2)ccc1NC(=O)c1ccc([N+](=O)[O-])o1 | > 79 µM (inactive)
COc1ccc(C(=O)Nc2ccc(NC(=O)c3cc4ccccc4o3)cc2)cc1Br | > 79 µM (inactive)
Cc1cc(NC(=O)c2ccc3c(c2)OCCO3)ccc1NC(=O)c1cc2ccccc2o1 | 12.9 µM
CC(=O)NC(c1ccc2ccccc2c1)c1ccc2cccnc2c1O (stereo not given) | > 79 µM (inactive)
CCCCC(=O)NC(c1ccc(C(C)C)cc1)c1ccc2cccnc2c1O (stereo not given) | > 79 µM (inactive)
Cc1ccc(NC(=O)c2ccc([N+](=O)[O-])o2)cc1C | > 79 µM (inactive)
CCCCC(=O)NC(c1ccccc1)c1ccc2cccnc2c1O (stereo not given) | > 79 µM (inactive)
Cc1ccc(NC(=O)c2ccc([N+](=O)[O-])o2)cc1C(F)(F)F | > 79 µM (inactive)
COc1ccc(C(=O)Nc2ccc(NC(=O)c3cc4ccccc4o3)cc2)cc1OC | > 79 µM (inactive)
CC(C)(C)c1ccc(-c2noc(CCC(N)=O)n2)cc1 | 0.55 µM
CC(C)(C)NC(=O)CCc1nc(-c2ccc(C(C)(C)C)cc2)no1 | 2.5 µM
Cc1ccc2nsnc2c1NC(=O)c1ccc([N+](=O)[O-])o1 | > 79 µM (inactive)
CCCC(=O)NC(c1ccc(C(C)C)cc1)c1ccc2cccnc2c1O (stereo not given) | > 79 µM (inactive)
NS(=O)(=O)c1ccc(NC(=O)c2ccc([N+](=O)[O-])o2)cc1 | 58.9 µM (inactive)
